Measurements from article PMC8802628, “Selective activation of PFKL suppresses the phagocytic oxidative burst” (Cell, 2021).

Target: T1, PFKL (Homo sapiens, UniProt P17858)
T1 construct: endogenous in cells; host or cells: THP-1 cell lysate
T1 sequence (P17858 2-780 limits assumed): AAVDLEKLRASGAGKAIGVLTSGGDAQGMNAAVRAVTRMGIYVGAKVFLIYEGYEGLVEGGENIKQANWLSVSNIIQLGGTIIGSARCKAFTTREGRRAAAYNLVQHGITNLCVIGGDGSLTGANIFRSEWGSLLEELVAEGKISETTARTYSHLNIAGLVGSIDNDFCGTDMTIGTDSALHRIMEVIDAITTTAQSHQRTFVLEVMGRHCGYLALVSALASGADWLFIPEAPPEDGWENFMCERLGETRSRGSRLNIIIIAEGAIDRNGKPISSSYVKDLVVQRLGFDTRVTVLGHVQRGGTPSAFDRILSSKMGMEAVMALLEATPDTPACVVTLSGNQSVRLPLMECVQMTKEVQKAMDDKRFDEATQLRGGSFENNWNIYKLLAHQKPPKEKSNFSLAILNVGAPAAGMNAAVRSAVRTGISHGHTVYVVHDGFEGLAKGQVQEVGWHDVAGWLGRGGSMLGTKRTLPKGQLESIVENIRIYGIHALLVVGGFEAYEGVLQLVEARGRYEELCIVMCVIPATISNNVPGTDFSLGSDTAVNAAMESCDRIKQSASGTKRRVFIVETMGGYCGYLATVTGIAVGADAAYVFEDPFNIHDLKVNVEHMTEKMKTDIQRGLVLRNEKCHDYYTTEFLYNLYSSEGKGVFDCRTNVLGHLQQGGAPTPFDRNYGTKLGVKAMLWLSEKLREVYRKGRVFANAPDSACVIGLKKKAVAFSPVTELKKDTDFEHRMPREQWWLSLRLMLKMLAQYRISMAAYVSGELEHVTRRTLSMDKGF
Test: Photoaffinity labeling pull-down in human blood leukocytes
Assay type: binding
Conditions: 1 μM probe, competition with 10 μM NA-11
Procedure: Buffy coats (100 mL) were diluted with ice-cold water (540 mL) for 30 s to lyse red blood cells. Following addition of 10 x HBSS buffer (50 mL) leukocytes were pelleted for 3 min at 300 x g, then washed twice in D-PBS and resuspended in RPMI medium. Cells (2 × 10^7) were plated on 15-cm dishes in DMSO vehicle, 1 μM PALP1 or 1 μM PALP6 for 30 min at 37°C. For competition, 10 μM NA-11 was added for 15 min, and then 1 μM PALP1 was added for an additional 30 min. To crosslink the photoaffinity probe, cells were UV-irradiated (High intensity mercury spot lamp, 100W, 365 nm, UVP) in RPMI for 5 min on ice. Cells were lysed in 200 μL 10 mM Tris pH 7.5, 150 mM NaCl, 1% NP-40, 2.5 mM MgCl2, 0.5 mM CaCl2, 2% glycerol, 10 μg/mL DNase-I, and 1 x EDTA-free Protease inhibitor cocktail. Lysates from 5 plates for each condition were pooled and incubate 10 min on ice.
Biotin-DADPS tagging, biotin-streptavidin affinity purification, and on-bead digestion were performed as described ([Hewings et al., 2018]). Briefly, lysates were cleared by centrifugation and the lysate concentration adjusted to 5 mg/mL. Streptavidin Ultralink Resin (100 μL of 50% slurry, Pierce) was washed twice with PBS and mixed with 1 mL of lysate for 30 min at room temperature. […]
For the classical TPP, quantitative data from each temperature were used to generate a thermal titration curve and calculate a melting point. […]

SMILES: CC(=O)Nc1ccc2c(c1)OCc1cc(-c3ccccc3C#CCCCO)nn1C2 [NA-11]
- photoaffinity labeling / pull-down of PFKL: competed effectively by NA-11
